Experimental data reported in US9682955B2, “Quinazoline derivatives useful as CB-1 inverse agonists” (Janssen Pharmaceutica NV, priority 2014, dated 2017).

Columns and labels:
[1] = target: Human CB1R (Cannabanoid receptor 1) (Homo sapiens (Human), UniProt P21554); assay: CB-1 in vitro cAMP assay (HTRF); assay type: cell-based; conditions: mean where tested more than once
From the text: (§1) CB1 and CB2 receptors are Gi-coupled GPCR. Activation of CB1 and CB2 receptors results in a decrease in cAMP production. An inverse agonist of the CB1 or CB2 receptor results in the opposite effect, an increase of cAMP production. The principle of this assay is based on HTRF® technology (Homogeneous Time-Resolved Fluorescence). The method is a competitive immunoassay between native cAMP produced by cells and the cAMP labeled with the fluorophore d2. The tracer binding is quantified by a Mab anti-cAMP labeled with Eu3+TBP-NHS Cryptate (supplied as part of the assay kit). The specific signal (i.e. energy transfer) is inversely proportional to the concentration of cAMP in the standard or sample.
(§2) Human CB1R (Cannabanoid receptor 1) was stably transfected in HEK-293 cells (DiscoveRx, cat: 93-0200C1). Human CB2R (Cannabanoid receptor 2) was stably transfected in HEK-293 cells (DiscoveRx, cat: 93-0201C1). Cell cultures were maintained in media: DMEM (Invitrogen Cat#12430-054) supplemented with 10% HI FBS (Invitrogen Cat#16140-071), 1% L-glutamine (Invitrogen Cat#25030-081), 0.2 mg/ml Hygromycin B (Invitrogen Cat#10687-010), 600 μg/mL G418 (Invitrogen Cat#10131-035), and 1× Penn/Strep (Invitrogen 15140-122). After cell expansion, aliquots were cryo-stored in media containing 5% DMSO (Pierce Cat#20684).
(§3) One day prior to experiments media was warmed to 37° C. and the cryo-stored cells were thawed in a 37° C. water bath. The cells were then added to media (10× volume) and the mixture was centrifugated at 1000 RPM for 5 min. The supernate was removed and the cells were re-suspended in media. A sample of the cell suspension was evaluated on a Cedex XS automated cell counter (Innovatis Systems) to determine viable cells/ml. Additional media was added to the cells to achieve a final cell density of 4E5 cells/mL. The cells were then plated into 384 well PDL white solid bottom plates (Greiner, Cat#781945) at 20 μL per well using a Multidrop (Thermo Scientific). Cells were removed from Row P (location of cAMP standards). Two columns of cells were plated into a clear bottom 384 well PDL coated plate (Greiner, Cat#781944) to view confluence the day of the assay. The cell plates were lidded and stored for 15 minutes in a hood, then transferred to an incubator (37° C., 5% CO2, 95% humidity) overnight.
(§4) DMSO was added to all wells of 384 well V bottom polystyrene plate (Greiner, Cat#781280) except to columns 1 and 13, rows O and P and wells M13-M23 and N13-N23. Test compounds (60 μL, 10 mM) were added to Column 1 and 13 (A1 through N1 and A13 through L13). Test compounds were serially diluted 1/3 by transferring and mixing 20 μl sample with 40 μL DMSO.
(§5) DMSO (40 μL) was added to wells of 384 well V bottom polystyrene plate: O2 through O11, M14 through M23, N14 through N23, and O14 through O23. AM630 (also known as [6-iodo-2-methyl-1-[2-(4-morpholinyl)ethyl]-1H-indol-3-yl](4-methoxyphenyl)-methanone, Cayman Chemical, Cat#10006974) (60 μL, 10 mM) was added to O1; and 1-(2,4-dichlorophenyl)-7-[(4-fluorophenyl)methylene]-4,5,6,7-tetrahydro-N-1-piperidinyl-1H-indazole-3-carboxamide (60 μL, 10 mM) was added to N13. The control was serially diluted 1/3 by transferring and mixing 20 μl sample with 40 μL DMSO. This process resulted 11 doses per control, 10 mM to […].
(§6) Cells plated the day prior to the assay in clear bottom plates were viewed on an inverse microscope to ensure confluency in the range of 60-75%. […]

[2] = target: Human CB2R (Cannabanoid receptor 2) (Homo sapiens (Human), UniProt P34972); assay: CB-2 in vitro cAMP assay (HTRF); assay type: cell-based; conditions: mean where tested more than once
Sequence of Human CB2R (Cannabanoid receptor 2) (P34972 whole entry): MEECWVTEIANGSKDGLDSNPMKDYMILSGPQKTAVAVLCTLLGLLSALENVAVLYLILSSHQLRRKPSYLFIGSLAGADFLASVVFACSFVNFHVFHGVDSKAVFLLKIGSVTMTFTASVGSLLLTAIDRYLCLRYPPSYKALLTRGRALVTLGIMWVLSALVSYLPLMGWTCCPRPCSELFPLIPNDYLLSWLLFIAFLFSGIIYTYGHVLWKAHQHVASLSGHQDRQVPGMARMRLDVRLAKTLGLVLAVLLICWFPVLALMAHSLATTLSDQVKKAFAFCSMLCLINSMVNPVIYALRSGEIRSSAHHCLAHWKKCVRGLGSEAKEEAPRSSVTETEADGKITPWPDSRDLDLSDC
From the text: as §1, §2, §3, §4, §5, §6

Sequence of Human CB1R (Cannabanoid receptor 1) (P21554 whole entry): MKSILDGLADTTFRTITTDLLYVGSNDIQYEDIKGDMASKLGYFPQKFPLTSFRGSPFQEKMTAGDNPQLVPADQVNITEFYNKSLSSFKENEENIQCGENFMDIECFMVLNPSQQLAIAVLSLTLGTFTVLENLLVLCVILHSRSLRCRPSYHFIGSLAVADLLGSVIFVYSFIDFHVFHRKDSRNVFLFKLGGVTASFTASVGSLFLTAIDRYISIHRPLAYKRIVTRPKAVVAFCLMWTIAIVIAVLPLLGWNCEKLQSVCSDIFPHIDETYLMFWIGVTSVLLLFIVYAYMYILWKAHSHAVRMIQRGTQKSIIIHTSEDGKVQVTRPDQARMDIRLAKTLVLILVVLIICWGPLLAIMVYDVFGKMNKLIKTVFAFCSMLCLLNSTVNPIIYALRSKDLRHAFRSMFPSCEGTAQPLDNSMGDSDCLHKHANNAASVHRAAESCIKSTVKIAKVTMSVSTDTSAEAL

SMILES | EC50 [1] | EC50 [2]
O=C(O)c1cccc(CNc2ncnc3ccc(C(c4ccc(Cl)cc4)c4ccc(Cl)cc4)cc23)c1 [Compound #59, 3-(((6-(bis(4-chlorophenyl)methyl)quinazolin-4-yl)amino)methyl)benzoic acid] | 4430 nM | > 10000 nM
NC(=O)c1cccc(CN2CCC(Nc3ncnc4ccc(C(c5ccc(Cl)cc5)c5ccc(Cl)cc5)cc34)CC2)c1 [Compound #36, 3-((4-((6-(bis(4-chlorophenyl)methyl)quinazolin-4-yl)amino)piperidin-1-yl)methyl)benzamide] | 14 nM | 3640 nM
O=S(=O)(NC1CCN(c2ncnc3ccc(C(c4ccc(Cl)cc4)c4ccc(Cl)cc4)cc23)C1)C(F)(F)F (centres unmarked) [Compound #9, N-(1-(6-(bis(4-chlorophenyl)methyl)quinazolin-4-yl)pyrrolidin-3-yl)trifluoromethanesulfonamide] | 191 nM | 150 nM
O=C(NCCCOc1ccc(CO)cc1)c1ccc(S(=O)(=O)N2CCC(Nc3ncnc4ccc(C(c5ccc(Cl)cc5)c5ccc(Cl)cc5)cc34)CC2)cc1 [Compound #26, 4-((4-((6-(bis(4-chlorophenyl)methyl)quinazolin-4-yl)amino)piperidin-1-yl)sulfonyl)-N-(3-(4-(hydroxymethyl)phenoxy)propyl)benzamide] | 20 nM | > 10000 nM
CCOC(=O)COc1ccc(S(=O)(=O)N2CCC(Nc3ncnc4ccc(C(c5ccc(Cl)cc5)c5ccc(Cl)cc5)cc34)CC2)cc1 [Compound #4, Ethyl 2-(4-((4-((6-(bis(4-chlorophenyl)methyl)quinazolin-4-yl)amino)piperidin-1-yl)sulfonyl)phenoxy)acetate] | 9 nM | 170 nM
NCCOc1nc(NCc2ccc(C(F)(F)F)cc2)c2cc(C(c3ccc(Cl)cc3)c3ccc(Cl)cc3)ccc2n1 [Compound #72, 2-(2-aminoethoxy)-6-(bis(4-chlorophenyl)methyl)-N-(4-(trifluoromethyl)benzyl)quinazolin-4-amine] | 51 nM | > 10000 nM
O=C(O)c1ccc(S(=O)(=O)N2CCC(Nc3ncnc4ccc(C(c5ccc(Cl)cc5)c5ccc(Cl)cc5)cc34)CC2)cc1Cl [Compound #23, 4-((4-((6-(bis(4-chlorophenyl)methyl)quinazolin-4-yl)amino)piperidin-1-yl)sulfonyl)-2-chlorobenzoic acid] | 19 nM | 434 nM
O=C(NC(CO)(CO)CO)c1ccc(S(=O)(=O)N2CCC(Nc3ncnc4ccc(C(c5ccc(Cl)cc5)c5ccc(Cl)cc5)cc34)CC2)cc1 [Compound #41, 4-((4-((6-(Bis(4-chlorophenyl)methyl)quinazolin-4-yl)amino)piperidin-1-yl)sulfonyl)-N-(1,3-dihydroxy-2-(hydroxymethyl)propan-2-yl)benzamide] | 8 nM | 1470 nM
N#Cc1ccc(S(=O)(=O)N2CCC(Nc3ncnc4ccc(C(c5ccc(Cl)cc5)c5ccc(Cl)cc5)cc34)CC2)cc1 [Compound #52, 4-((4-((6-(bis(4-chlorophenyl)methyl)quinazolin-4-yl)amino)piperidin-1-yl)sulfonyl)benzonitrile] | 12 nM | > 10000 nM
OCCOc1nc(NCc2cccc(C(F)(F)F)c2)c2cc(C(c3ccc(Cl)cc3)c3ccc(Cl)cc3)ccc2n1 [Compound #55, 2-((6-(bis(4-chlorophenyl)methyl)-4-((3-(trifluoromethyl)benzyl)amino)quinazolin-2-yl)oxy)ethanol] | 13 nM | 4440 nM
COc1nc(NC2CCN(S(=O)(=O)c3ccc(C(=O)O)cc3)CC2)c2cc(C(c3ccc(Cl)cc3)c3ccc(Cl)cc3)ccc2n1 [Compound #46, 4-((4-((6-(bis(4-chlorophenyl)methyl)-2-methoxyquinazolin-4-yl)amino)piperidin-1-yl)sulfonyl)benzoic acid] | 31 nM | 616 nM

Continued, values first:

EC50 [1] | EC50 [2] | SMILES
4 nM | 2150 nM | O=S(=O)(N1CCCC1)N1CCC(Nc2ncnc3ccc(C(c4ccc(Cl)cc4)c4ccc(Cl)cc4)cc23)CC1 [Compound #120, 6-(bis(4-chlorophenyl)methyl)-N-(1-(pyrrolidin-1-ylsulfonyl)piperidin-4-yl)quinazolin-4-amine]
163 nM | 2750 nM | FC(F)(F)c1ccc(Nc2ncnc3ccc(C(c4ccc(Cl)cc4)c4nccs4)cc23)cc1 (centres unmarked) [Compound #144, 6-((4-chlorophenyl)(thiazol-2-yl)methyl)-N-(4-(trifluoromethyl)phenyl)quinazolin-4-amine]
194 nM | > 10000 nM | O=S(=O)(c1ccc(Nc2ncnc3ccc(C(c4ccc(Cl)cc4)c4ccc(Cl)cc4)cc23)cc1)C(F)(F)F [Compound #134, 6-(bis(4-chlorophenyl)methyl)-N-(4-((trifluoromethyl)sulfonyl)phenyl)quinazolin-4-amine]
5 nM | 801 nM | O=S(=O)(N1CCC(Nc2ncnc3ccc(C(c4ccc(Cl)cc4)c4ccc(Cl)cc4)cc23)CC1)C(F)(F)F [Compound #145, 6-(bis(4-chlorophenyl)methyl)-N-(1-((trifluoromethyl)sulfonyl)piperidin-4-yl)quinazolin-4-amine]
4 nM | > 10000 nM | COc1nc(NC2CCN(S(=O)(=O)C(F)(F)F)CC2)c2cc(C(c3ccc(Cl)cc3)c3ccc(Cl)cc3)ccc2n1 [Compound #103, 6-(bis(4-chlorophenyl)methyl)-2-methoxy-N-(1-((trifluoromethyl)sulfonyl)piperidin-4-yl)quinazolin-4-amine]
254 nM | > 10000 nM | CNc1nc(NC2CCN(S(=O)(=O)C(F)(F)F)CC2)c2cc(C(c3ccc(Cl)cc3)c3ccc(Cl)cc3)ccc2n1 [Compound #113, 6-(bis(4-chlorophenyl)methyl)-N2-methyl-N4-(1-((trifluoromethyl)sulfonyl)piperidin-4-yl)quinazoline-2,4-diamine]
52 nM | > 10000 nM | FC(F)(F)c1ccc(Nc2ncnc3ccc(C(c4ccc(Cl)cc4)c4ccc(Cl)cc4)cc23)cc1Cl [Compound #122, 6-(bis(4-chlorophenyl)methyl)-N-(3-chloro-4-(trifluoromethyl)phenyl)quinazolin-4-amine]
2 nM | 1930 nM | O=S(=O)(c1ccccc1F)N1CCC(Nc2ncnc3ccc(C(c4ccc(Cl)cc4)c4ccc(Cl)cc4)cc23)CC1 [compound 124, 6-(bis(4-chlorophenyl)methyl)-N-(1-(2-fluorophenylsulfonyl)piperidin-4-yl)quinazolin-4-amine]
85 nM | 3500 nM | O=C(NCCO)c1cccc(N2CCC(Nc3ncnc4ccc(C(c5ccc(Cl)cc5)c5ccc(Cl)cc5)cc34)CC2)c1 [compound 83, 3-(4-(6-(bis(4-chlorophenyl)methyl)quinazolin-4-ylamino)piperidin-1-yl)-N-(2-hydroxyethyl)benzamide]
82 nM | 178 nM | NC(=O)Cc1ccc(N2CCC(Nc3ncnc4ccc(C(c5ccc(Cl)cc5)c5ccc(Cl)cc5)cc34)CC2)cc1 [Compound #74, 2-(4-(4-((6-(bis(4-chlorophenyl)methyl)quinazolin-4-yl)amino)piperidin-1-yl)phenyl)acetamide]
10 nM | > 10000 nM | O=C1CC(Nc2ncnc3ccc(C(c4ccc(Cl)cc4)c4ccc(Cl)cc4)cc23)CCN1c1ccccc1 (centres unmarked) [Compound #102, 4-((6-(bis(4-chlorophenyl)methyl)quinazolin-4-yl)amino)-1-phenylpiperidin-2-one]
